Reference: patent publication US10131652B2, “Pyrimidinyloxy benzene derivatives as herbicides” (E. I. DU PONT DE NEMOURS AND COMPANY, priority 2014, dated 2018)

Assays:
Test in all cases: Test F pre-/postemergence plant response
Type in all cases: in vivo
Details in all cases: scale 0 to 100
[1] = tested on: Brazilian crabgrass (Digitaria horizontalis)
Procedure, shortened: (§1)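 Formulation: non-phytotoxic solvent mix + surfactant. Preemergence: applied to seeded silt loam. Postemergence: foliar, 1- to 4-leaf plants, 2–18 cm. Greenhouse hold 14–21 days; visual score vs controls, 0 = no effect, 100 = complete control; dash = not tested.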

[2] = tested on: green foxtail (Setaria viridis)
Procedure, shortened: as §1

[3] = tested on: johnsongrass (Sorghum halepense)
Procedure, shortened: as §1

[4] = tested on: wild poinsettia (Euphorbia heterophylla)
Procedure, shortened: as §1

Row | SMILES | Plant response rating, Crabgrass, Brazil ([1]; 16 g ai/ha Postemergence) | Plant response rating, Crabgrass, Brazil ([1]; 16 g ai/ha Preemergence) | Plant response rating, Crabgrass, Brazil ([1]; 31 g ai/ha Postemergence) | Plant response rating, Crabgrass, Brazil ([1]; 31 g ai/ha Preemergence) | Plant response rating, Crabgrass, Brazil ([1]; 62 g ai/ha Postemergence) | Plant response rating, Crabgrass, Brazil ([1]; 62 g ai/ha Preemergence) | Plant response rating, Crabgrass, Brazil ([1]; 125 g ai/ha Postemergence) | Plant response rating, Crabgrass, Brazil ([1]; 125 g ai/ha Preemergence) | Plant response rating, Foxtail, Green ([2]; 16 g ai/ha Preemergence) | Plant response rating, Foxtail, Green ([2]; 31 g ai/ha Preemergence) | Plant response rating, Foxtail, Green ([2]; 125 g ai/ha Preemergence) | Plant response rating, Foxtail, Green ([2]; Preemergence) | Plant response rating, Johnsongrass ([3]; 16 g ai/ha Preemergence) | Plant response rating, Johnsongrass ([3]; 31 g ai/ha Preemergence) | Plant response rating, Johnsongrass ([3]; 125 g ai/ha Preemergence) | Plant response rating, Johnsongrass ([3]; Preemergence) | Plant response rating, Poinsettia, Wild ([4]; 16 g ai/ha Postemergence) | Plant response rating, Poinsettia, Wild ([4]; 31 g ai/ha Postemergence) | Plant response rating, Poinsettia, Wild ([4]; 62 g ai/ha Postemergence) | Plant response rating, Poinsettia, Wild ([4]; 125 g ai/ha Postemergence) | also measured
1 | Cc1cc(-c2ccccc2Oc2ncc(Cl)cn2)on1 [Compound 58] | 5 | 0 | 5 | 0 | 10 | 35 | 10 | 75 | 0 | 0 | 25 | 0 | 0 | 0 | 20 | 0 | 30 | 60 | 50 | 60 | Plant response rating, Crabgrass, Brazil ([1]; 8 g ai/ha Postemergence): 5; Plant response rating, Crabgrass, Brazil ([1]; 8 g ai/ha Preemergence): 0; Plant response rating, Foxtail, Green ([2]; 8 g ai/ha Preemergence): 0; Plant response rating, Johnsongrass ([3]; 8 g ai/ha Preemergence): 0; Plant response rating, Poinsettia, Wild ([4]; 8 g ai/ha Postemergence): 30; Plant response rating, Poinsettia, Wild ([4]; 8 g ai/ha Preemergence): 0; Plant response rating, Poinsettia, Wild ([4]; 16 g ai/ha Preemergence): 0; Plant response rating, Poinsettia, Wild ([4]; 31 g ai/ha Preemergence): 20; Plant response rating, Poinsettia, Wild ([4]; 125 g ai/ha Preemergence): 20; Plant response rating, Poinsettia, Wild ([4]; Preemergence): 20
2 | Fc1ccc(Oc2ncc(Cl)cn2)c(-c2cc(C(F)F)on2)c1Cl [Compound 96] | 0 | 0 | 5 | 0 | 20 | 0 | 25 | 5 | 25 | 30 | 25 | 35 | 20 | 60 | 98 | 50 | 0 | 30 | 60 | 50 | Plant response rating, Poinsettia, Wild ([4]; 16 g ai/ha Preemergence): 0; Plant response rating, Poinsettia, Wild ([4]; 31 g ai/ha Preemergence): 0; Plant response rating, Poinsettia, Wild ([4]; 125 g ai/ha Preemergence): 25; Plant response rating, Poinsettia, Wild ([4]; Preemergence): 0
3 | CC(F)(F)c1cc(-c2ccccc2Oc2ncc(Br)cn2)no1 [Compound 149] | 20 | 0 | 20 | 15 | 20 | 35 | 25 | 85 | 0 | 0 | 50 | 50 | 0 | 0 | 15 | 0 | 50 | 40 | 60 | 70 | Plant response rating, Poinsettia, Wild ([4]; 16 g ai/ha Preemergence): 0; Plant response rating, Poinsettia, Wild ([4]; 31 g ai/ha Preemergence): 0; Plant response rating, Poinsettia, Wild ([4]; 125 g ai/ha Preemergence): 35; Plant response rating, Poinsettia, Wild ([4]; Preemergence): 0
4 | FC(F)c1cc(-c2c(Cl)cccc2Oc2ncc(Cl)cn2)no1 [Compound 179] | 10 | 0 | 20 | 0 | 20 | 15 | 30 | 25 | 0 | 0 | 15 | 0 | 0 | 0 | 10 | 10 | 15 | 15 | 20 | 35 | Plant response rating, Poinsettia, Wild ([4]; 16 g ai/ha Preemergence): 0; Plant response rating, Poinsettia, Wild ([4]; 31 g ai/ha Preemergence): 0; Plant response rating, Poinsettia, Wild ([4]; 125 g ai/ha Preemergence): 0; Plant response rating, Poinsettia, Wild ([4]; Preemergence): 0
5 | FC(F)c1cc(-c2ccccc2Oc2ncc(Br)cn2)on1 [Compound 212] | 20 |  | 30 |  | 30 |  | 35 |  |  |  |  |  |  |  |  |  | 35 | 40 | 50 | 60 | 
6 | Fc1ccc(Oc2ncc(Cl)cn2)c(-c2cc(C(F)(Cl)Cl)on2)c1 [Compound 221] | 20 |  | 25 |  | 45 |  | 75 |  |  |  |  |  |  |  |  |  | 65 | 75 | 70 | 80 | 
